In assay [1] the target is T1, WT (SEQ ID NO: 5) EcPhnD (Escherichia coli, UniProt P16682, N152C).
T1 construct: made in house; host or cells: E. coli BL21 DE3
Description: biochemical. Type of assay: binding, E. coli. On the procedure: (§1) Fluorescent screening and data Analysis. All fluorescence measurements were collected on a SpectraM2 fluorescence spectrometer at 22° C. Acrylodan excitation was set-up at 359 nm and an emission sweep was collected between 400-600 nm. Coumarin conjugated PhnD was excited at 419 nm and an emission spectrum was collected between 430-520 nm. Titrations were performed by increasing concentration of ligand and monitoring the changes in fluorescence intensity at 465 nm for coumarin conjugates or the ratio of fluorescence at 570 nm/450 nm. Error bars represent the standard deviation from three individual titrations. The fluorescence intensity at each wavelength was measured three times for each ligand concentration and the average of the reading was calculated. The ratio of the two averages from each of the three titrations was used to calculate the standard deviation. Kd values were determined by fitting the titration data to the following single binding isotherm equation using Kaleidagraph, where F is the observed fluorescence at a certain ligand concentration [L], Fo is the fluorescence in the absence of ligand, and Fmax is the fluorescence at saturating ligand concentrations.

Assay [2] addresses T2, PND177NΔ (SEQ ID NO: 2) (Escherichia coli, UniProt P16682, E203N/N152C).
T2 construct: made in house; host or cells: E. coli BL21 DE3
Description: biochemical. Conditions: for affinity of the sensor for the ligand, in words: PhnD-E177NΔ sensor. Type of assay: binding, E. coli.
From the text: (§2) To determine the Kd values, the ratio of fluorescence between two wavelengths (570 nm/450 nm) was monitored as a function of increasing ligand concentrations (FIGS. 2 and 3). The titration data were fit to a single binding isotherm equation (eq. 1), where R is defined as the fluorescence ratio at a given ligand concentration [L], R0 is the fluorescence ratio in the absence of ligand and Rmax is the fluorescence ratio at saturating ligand concentrations.
as §1

Assay [3] deals with EcPhnD (Escherichia coli, UniProt P16682). As to conditions: cited from earlier work.
Chain of EcPhnD (P16682 27-338): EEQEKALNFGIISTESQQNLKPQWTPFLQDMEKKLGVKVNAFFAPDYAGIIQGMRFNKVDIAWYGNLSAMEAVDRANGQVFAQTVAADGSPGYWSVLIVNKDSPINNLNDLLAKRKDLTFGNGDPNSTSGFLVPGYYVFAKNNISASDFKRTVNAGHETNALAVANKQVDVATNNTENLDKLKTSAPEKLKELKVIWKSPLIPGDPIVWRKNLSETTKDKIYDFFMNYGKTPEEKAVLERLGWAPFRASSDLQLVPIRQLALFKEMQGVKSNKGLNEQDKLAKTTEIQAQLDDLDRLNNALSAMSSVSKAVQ
Assay [4] has as its system PND177NΔ (SEQ ID NO: 2). Description: biochemical. As to conditions: PhnD-E177NΔ sensor vs wild type. Type of assay: binding, E. coli.
From the text: as §2, §1

A short description of assay [5]: Fluorescence titration of acrylodan-labelled PhnD variants with glyphosate. Type of assay: binding. An excerpt:
The fluorescent reporter group attached to PhnD changes its emission properties in response to glyphosate binding which can be observed using fluorescent spectroscopy. This allows detection of a ligand (in this case glyphosate), where fluorescence emission can be used to determine the concentration of glyphosate in solution. Two main types of data were collected, Apo vs Saturated spectra showing fluorescence emission with and without glyphosate (not shown), and the other type was titrations done with increasing glyphosate concentrations to determine the Kd value for each mutant for glyphosate.
The purified, fluorescently-labeled mutants were tested for their ability to bind to glyphosate. Kd values were determined by monitoring the changes in fluorescence as a function of increasing ligand concentrations. Table 1 provides dissociation constants (Kd values) of different PhnD variants for glyphosate. All mutants contain a cysteine at position 126 for attachment of acrylodan. Values were obtained by monitoring fluorescence change as a function of ligand concentration using eq. 1.
Importantly, the change in fluorescence associated with ligand binding is ratiometric with a larger decrease in emission at lower wavelengths. To determine the Kd values, the ratio of fluorescence between two wavelengths (570 nm/450 nm) was monitored as a function of increasing ligand concentrations (FIGS. 2 and 3). The titration data were fit to a single binding isotherm equation (eq. 1), where R is defined as the fluorescence ratio at a given ligand concentration [L], R0 is the fluorescence ratio in the absence of ligand and Rmax is the fluorescence ratio at saturating ligand concentrations.
Fluorescent screening and data Analysis. All fluorescence measurements were collected on a SpectraM2 fluorescence spectrometer at 22° C. […] Titrations were performed by increasing concentration of ligand and monitoring the changes in fluorescence intensity at 465 nm for coumarin conjugates or the ratio of fluorescence at 570 nm/450 nm. […]

Where [6] appears, read: WT (SEQ ID NO: 5), read-out: WT Kd.
[7] abbreviates: PND177NΔ (SEQ ID NO: 2), acrylodan, ratio 570 nm/450 nm, read-out: PND177NΔ Kd.

One may read the Kd as the free concentration of one partner at which half of the binding sites on the other are occupied at equilibrium, for simple one-to-one binding.

Read-outs that look alike come from different tables or passages of the source.

T1 sequence (P16682 27-338 N152C): as the sequence (P16682 27-338) above, with N126C counted along it

As for Phosphate, the Kd in assay [1] (setting [6]) was 260 µM; in assay [2] (setting [7]) it was 26.1 µM. Besides, the “affinity of the sensor for the ligand, in words” value in assay [2] was “moderate affinities”.

Consider Arsenate, for which the equilibrium dissociation constant (Kd) worked out at 230 µM in assay [1] (setting [6]) and 10.7 µM in assay [2] (setting [7]). Further, in assay [2], the “affinity of the sensor for the ligand, in words” value was “moderate affinities”.

With `O=C(O)CNCP(=O)(O)O` [Glyphosate], the Kd in assay [3] (previous research, read-out: Kd of EcPhnD for glyphosate) was roughly 650 µM; in assay [1], 650 µM; in assay [2] it was 4.29 µM.

As to `NCCP(=O)(O)O` [2-Aminoethyl Phosphate (2-AEP), 2-Aminoethyl Phosphonate], the dissociation constant (Kd) in assay [3] (natural ligand, background statement, read-out: Kd of PhnD for 2-AEP) is roughly 0.005 µM; in assay [1] (setting [6]) it was 0.002 µM; in assay [2] (setting [7]) it was 5.61 µM. Further, the “reduction of affinity compared to the wild-type protein” value in assay [4] is given as “more than 3 orders of magnitude”.

B1: E177NΔ (protein)
chain: EEQEKALNFGIISTESQQNLKPQWTPFLQDMEKKLGVKVNAFFAPDYAGIIQGMRFNKVDIAWYGNLSAMEAVDRANGQVFAQTVAADGSPGYWSVLIVNKDSPINNLNDLLAKRKDLTFGNGDPCSTSGFLVPGYYVFAKNNISASDFKRTVNAGHETNALAVANKQVDVATNNTNNLDKLKTSAPEKLKELKVIWKSPLIPGSPIVWRKNLSETTKDKIYDFFMNYGKTPEEKAVLERLGWAPFRASSDLQLVPIRQLALFKEMQGVKSNKGLNEQDKLAKTTEIQAQLDDLDRLNNALSA
With B1, the “fold increase in affinity for glyphosate over the wild-type protein” value in assay [5] is “over 150 fold”. In assay [5] (saturating glyphosate (FIG. 6)), the “fluorescence change associated with glyphosate binding” value is reported as “large decrease in fluorescence”.

B2: E177N (protein)
chain: EEQEKALNFGIISTESQQNLKPQWTPFLQDMEKKLGVKVNAFFAPDYAGIIQGMRFNKVDIAWYGNLSAMEAVDRANGQVFAQTVAADGSPGYWSVLIVNKDSPINNLNDLLAKRKDLTFGNGDPCSTSGFLVPGYYVFAKNNISASDFKRTVNAGHETNALAVANKQVDVATNNTNNLDKLKTSAPEKLKELKVIWKSPLIPGDPIVWRKNLSETTKDKIYDFFMNYGKTPEEKAVLERLGWAPFRASSDLQLVPIRQLALFKEMQGVKSNKGLNEQDKLAKTTEIQAQLDDLDRLNNALSAMSSVSKAVQ
In the case of B2, the “fold increase in affinity for glyphosate over the wild-type protein” value in assay [5] was 80 fold.

The record behind these values is US12584915B2, “Glyphosate biosensor” (priority 2019, dated 2026).
